Measurements reported in patent publication US20050009809A1, “Acridine derivatives and their use as medicaments” (priority 2003, published 2005).
≈ marks a conversion by molar mass, not a printed value. Where two headings read alike, the source gives them in different places.

Tests used:
[1] = Saturation solubility in water; details: for Water solubility compared to the comparison substances: versus comparison substances of WO0208194; for solubility: water, thermodynamic from solid
Procedure: The saturation solubility in water is determined as described below. For incipient dissolution of the substances and to improve wetting of the samples, at most 1% of DMSO is added. To check the content, an HPLC-UV method was used.

[2] = tested on: human cervical carcinoma cell line KB/HeLa; assay: XTT proliferation assay, KB/HeLa; assay type: cell-based; details: for EC50: Homo sapiens, read-out: XTT proliferation assay, EC50, KB/Hela
Text: (§1) The substances according to the invention were investigated for their antiproliferative activity in a proliferation test on established tumor cell lines. The test used determines the cellular dehydrogenase activity and makes possible a determination of the cell vitality and indirectly the cell count. The cell lines used are the human cervical carcinoma cell line KB/HeLa (ATCC CCL17), the ovarian adenocarcinoma cell line SKOV-3 (ATCC HTB77), the human glioblastoma cell line […] (NCI 503138) and the lung carcinoma cell line NCI-H460 (NCI 503473).
(§2) The adherently growing tumor cell lines KB/HeLa, SKOV-3, SF-268 and NCI-H460 were cultured under standard conditions in a fumigation incubator at 37° C., 5% CO2 and 95% atmospheric humidity. On experimental day 1, the cells are detached using trypsin/EDTA and pelleted by centrifugation. Subsequently, the cell pellet is resuspended in the respective culture medium at the corresponding cell count and reacted in a 96-well microtiter plate. The plates are then cultured overnight in the fumigation incubator. The test substances are prepared as 1 mg/ml stock solutions in DMSO and diluted to the appropriate concentrations on experimental day 2 using culture medium. The substances in culture medium are then added to the cells and incubated in the fumigation incubator for 45 h. As a control, cells which are not treated with test substance are used. For the XTT assay, 1 mg/ml of XTT (sodium 3′-[1-(phenylaminocarbonyl)-3,4-tetrazolium]-bis(4-methoxy-6-nitro)benzenesulfonic acid) is dissolved in RPMI-1640 medium without Phenol Red. Additionally, a 0.383 mg/ml PMS (N-methyldibenzopyrazine methylsulfate) solution in phosphate-buffered saline solution (PBS) is prepared. On experimental day 4, 75 μl/well of XTT-PMS mixture is pipetted onto the cell plates which in the meantime have been incubated with the test substances for 45 h. For this, shortly before use, the XTT solution is mixed with the PMS solution in the ratio 50:1 (vol:vol). The cell plates are then incubated in the fumigation incubator for a further 3 h and the optical density (OD490 nm) is determined in a photometer. By means of the OD490 nm determined, the percentage inhibition is calculated relative to the control and plotted semilogarithmically in the form of a concentration-action curve. The EC50 is calculated by means of a regression analysis from the concentration-action curve using the program Graphpad Prism.

[3] = tested on: lung carcinoma cell line NCI-H460; assay: XTT proliferation assay, NCI-H460; assay type: cell-based, human; details: for EC50: Homo sapiens, read-out: XTT proliferation assay, EC50, NCI-H460
Text: as §1, §2

[4] = tested on: human glioblastoma cell line SF-268; assay: XTT proliferation assay, SF-268; assay type: cell-based; details: for EC50: Homo sapiens, read-out: XTT proliferation assay, EC50, SF-268
Text: as §1, §2

[5] = tested on: ovarian adenocarcinoma cell line SKOV-3; assay: XTT proliferation assay, SKOV-3; assay type: cell-based, human; details: for EC50: Homo sapiens, SK-OV-3, read-out: XTT proliferation assay, EC50, SKOV3
Text: as §1, §2

[6] = NCI-H460 cells, 45 h incubation

Compound | solubility [1] [µg/mL] | EC50 ([2]; KB/HeLa cells, 45 h incubation) [µg/mL] | EC50 [3, 6] [µg/mL] | EC50 ([4]; SF-268 cells, 45 h incubation) [µg/mL] | EC50 ([5]; SKOV-3 cells, 45 h incubation) [µg/mL] | also measured
Cc1cccc(N2CCN(C(=O)c3c4ccccc4nc4cc(O)cc(O)c34)CC2)n1 [Compound 1, (1,3-Dihydroxyacridin-9-yl)-[4-(6-methylpyridin-2-yl)piperazin-1-yl]-methanone] | 83.9 (≈ 202 µM) | – | – | – | – | Water solubility compared to the comparison substances [1]: greatly improved water solubilities
O=C(CCCCOC1C(O)C(O)OC(CO)C1O)Oc1cccc(N2CCN(C(=O)c3c4ccccc4nc4ccccc34)CC2)c1 (centres unmarked) [Compound 26, 3-[4-(Acridin-9-ylcarbonyl)piperazin-1-yl]phenyl 5-(2,3,5-trihydroxy-6-hydroxymethyltetrahydropyran-4-yloxy)pentanoate] | – | 0.042 (≈ 0.065 µM) | 0.054 (≈ 0.0836 µM) | 0.047 (≈ 0.0728 µM) | 0.026 (≈ 0.0403 µM) | –
O=C(CCC(=O)OC1C(O)C(O)OC(CO)C1O)Oc1cccc(N2CCN(C(=O)c3c4ccccc4nc4ccccc34)CC2)c1 (centres unmarked) [Compound 25, 3-[4-(Acridin-9-ylcarbonyl)piperazin-1-yl]phenyl 2,3,5-trihydroxy-6-hydroxymethyltetrahydropyran-4-yl succinate] | 215 | 0.019 | 0.035 | 0.029 | 0.014 | Water solubility compared to the comparison substances [1]: greatly improved water solubilities
O=C(Oc1cccc(N2CCN(C(=O)c3c4ccccc4nc4ccccc34)CC2)c1)Oc1cccc(N2CCN(C(=O)c3c4ccccc4nc4ccccc34)CC2)c1 [Compound 19, bis-{3-[4-(Acridin-9-ylcarbonyl)piperazin-1-yl]phenyl}carbonate] | – | 0.02 (≈ 0.0252 µM) | 0.026 (≈ 0.0328 µM) | 0.025 (≈ 0.0315 µM) | 0.013 (≈ 0.0164 µM) | –
CC1(C)OCC(C2OC3OC(C)(C)OC3C2OCCCCC(=O)Oc2cccc(N3CCN(C(=O)c4c5ccccc5nc5ccccc45)CC3)c2)O1 (centres unmarked) [Compound 24, 3-[4-(Acridin-9-ylcarbonyl)piperazin-1-yl]phenyl 5-[5-(2,2-dimethyl-[1,3]-dioxolan-4-yl)-2,2-dimethyltetrahydrofuro[2,3-d][1,3]dioxol-6-yloxy]-pentanoate] | – | 0.04 (≈ 0.0551 µM) | 0.072 (≈ 0.0992 µM) | 0.048 (≈ 0.0661 µM) | 0.023 (≈ 0.0317 µM) | –
COc1cccc(N2CCN(C(=O)c3c4ccccc4nc4ccccc34)CC2)c1 [Acridin-9-yl-[4-(3-methoxyphenyl)piperazin-1-yl]-methanone, reference compound] | 0.42 (≈ 1.06 µM) | – | – | – | – | –
O=C(c1c2ccccc2nc2ccccc12)N1CCN(c2cccc(OP(=O)(O)Oc3cccc(N4CCN(C(=O)c5c6ccccc6nc6ccccc56)CC4)c3)c2)CC1 [Compound 11, bis-{3-[4-(Acridin-9-ylcarbonyl)piperazin-1-yl]phenyl}phosphate] | – | – | – | – | – | XTT proliferation assay, EC50, KB/Hela ([2]; KB/HeLa cells, 45 h incubation): 0.132 µg/mL; XTT proliferation assay, EC50, NCI-H460 [3, 6]: 0.293 µg/mL; XTT proliferation assay, EC50, SF-268 ([4]; SF-268 cells, 45 h incubation): 0.127 µg/mL; XTT proliferation assay, EC50, SKOV3 ([5]; SKOV-3 cells, 45 h incubation): 0.133 µg/mL
CC(C)NC(=O)Oc1cccc(N2CCN(C(=O)c3c4ccccc4nc4ccccc34)CC2)c1 [Compound 2, 3-[4-(Acridin-9-ylcarbonyl)piperazin-1-yl]phenyl isopropylcarbamate] | – | 0.051 (≈ 0.109 µM) | 0.062 (≈ 0.132 µM) | 0.061 (≈ 0.13 µM) | 0.039 (≈ 0.0832 µM) | –
Cc1cccc(N2CCN(C(=O)c3c4ccccc4nc4ccccc34)CC2)n1 [Acridin-9-yl-[4-(6-methylpyridin-2-yl)piperazin-1-yl]methanone, reference compound] | 1.07 (≈ 2.8 µM) | – | – | – | – | –
O=C(c1c2ccccc2nc2ccccc12)N1CCN(c2cccc(O)c2)CC1 [Acridin-9-yl-[4-(3-hydroxyphenyl)piperazin-1-yl]methanone, reference compound] | 0.03 (≈ 0.0782 µM) | – | – | – | – | –
CC1(C)OCC(C2OC3OC(C)(C)OC3C2OC(=O)CCC(=O)Oc2cccc(N3CCN(C(=O)c4c5ccccc5nc5ccccc45)CC3)c2)O1 (centres unmarked) [Compound 23, 3-[4-(Acridin-9-ylcarbonyl)piperazin-1-y;]phenyl 5-(2,2-dimethyl-[1,3]dioxolan-4-yl)-2,2-dimethyltetrahydrofuro[2,3-d][1,3]dioxol-6-yl succinate] | – | – | – | – | – | XTT proliferation assay, EC50, KB/Hela ([2]; KB/HeLa cells, 45 h incubation): 0.045 µg/mL; XTT proliferation assay, EC50, NCI-H460 [3, 6]: 0.055 µg/mL; XTT proliferation assay, EC50, SF-268 ([4]; SF-268 cells, 45 h incubation): 0.058 µg/mL; XTT proliferation assay, EC50, SKOV3 ([5]; SKOV-3 cells, 45 h incubation): 0.023 µg/mL
O=C(CCC(=O)N(CCO)CCO)Oc1cccc(N2CCN(C(=O)c3c4ccccc4nc4ccccc34)CC2)c1 [Compound 20, 3-[4-(Acridin-9-ylcarbonyl)piperazin-1-yl]phenyl N,N-bis-(2-hydroxy-ethyl)succinate] | – | – | – | – | – | XTT proliferation assay, EC50, KB/Hela ([2]; KB/HeLa cells, 45 h incubation): 0.023 µg/mL; XTT proliferation assay, EC50, NCI-H460 [3, 6]: 0.027 µg/mL; Absolute solubility in water ([1]; saturation solubility, at most 1% DMSO, HPLC-UV): 143.5 µg/mL; Water solubility compared to the comparison substances [1]: greatly improved water solubilities; XTT proliferation assay, EC50, SF-268 ([4]; SF-268 cells, 45 h incubation): 0.021 µg/mL; XTT proliferation assay, EC50, SKOV3 ([5]; SKOV-3 cells, 45 h incubation): 0.014 µg/mL
O=C(NCCN1CCOCC1)Oc1cccc(N2CCN(C(=O)c3c4ccccc4nc4ccccc34)CC2)c1 [Compound 29, 3-[4-(Acridin-9-ylcarbonyl)piperazin-1-yl]phenyl (2-morpholin-4-yl-ethyl)carbamate] | 41 (≈ 76 µM) | 0.036 (≈ 0.0667 µM) | 0.027 (≈ 0.05 µM) | 0.024 (≈ 0.0445 µM) | 0.017 (≈ 0.0315 µM) | Water solubility compared to the comparison substances [1]: greatly improved water solubilities
CN1CCN(C(=O)CCC(=O)Oc2cccc(N3CCN(C(=O)c4c5ccccc5nc5ccccc45)CC3)c2)CC1 [Compound 21, 3-[4-(Acridin-9-ylcarbonyl)piperazin-1-yl]phenyl 4-(4-methylpiperazin-1-yl)-4-oxobutyrate] | 115 (≈ 203 µM) | 0.024 (≈ 0.0424 µM) | 0.025 (≈ 0.0442 µM) | 0.027 (≈ 0.0477 µM) | 0.018 (≈ 0.0318 µM) | Water solubility compared to the comparison substances [1]: greatly improved water solubilities
Mono-{3-[4-(acridin-9-ylcarbonyl)piperazin-1-yl]phenyl}glutarate [Compound 22] | – | – | – | – | – | XTT proliferation assay, EC50, KB/Hela ([2]; KB/HeLa cells, 45 h incubation): 0.01 µg/mL; XTT proliferation assay, EC50, NCI-H460 [3, 6]: 0.016 µg/mL; XTT proliferation assay, EC50, SF-268 ([4]; SF-268 cells, 45 h incubation): 0.019 µg/mL; XTT proliferation assay, EC50, SKOV3 ([5]; SKOV-3 cells, 45 h incubation): 0.007 µg/mL
O=C(NCCCl)Oc1cccc(N2CCN(C(=O)c3c4ccccc4nc4ccccc34)CC2)c1 [Compound 30, 3-[4-(Acridin-9-ylcarbonyl)piperazin-1-yl]phenyl (2-chloroethyl)carbamate] | – | 0.029 (≈ 0.0593 µM) | 0.025 (≈ 0.0511 µM) | 0.026 (≈ 0.0532 µM) | 0.019 (≈ 0.0389 µM) | –
O=C(c1c2ccccc2nc2ccccc12)N1CCN(c2cccc(OP(=O)(O)O)c2)CC1 [Compound 4, Mono-{3-[4-(acridin-9-ylcarbonyl)piperazin-1-yl]phenyl}phosphate] | – | – | – | – | – | XTT proliferation assay, EC50, KB/Hela [2]: 0.018 µg/mL; XTT proliferation assay, EC50, NCI-H460 [3]: 0.272 µg/mL; XTT proliferation assay, EC50, SF-268 [4]: 0.140 µg/mL; XTT proliferation assay, EC50, SKOV3 [5]: 0.208 µg/mL
